Reference: the supplement of paper PMC10307832

Columns and labels:
Test in all cases: relative viability (nuclei count vs DMSO), 5 days (fraction); higher = more cells survive
[1] = compound: Cc1ccc(NC(=O)c2ccc(CN3CCN(C)CC3)cc2)cc1Nc1nccc(-c2cccnc2)n1 [Imatinib] + Cc1nc(Nc2ncc(C(=O)Nc3c(C)cccc3Cl)s2)cc(N2CCN(CCO)CC2)n1 [Dasatinib] (partner 0.075 µM)
Procedure, shortened: (§1)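 Each reported value is a median over duplicate plates. It expresses relative viability: treated-well nuclei count divided by vehicle-well nuclei count. Lung cancer cell lines in 1536-well plates were dosed by pin tool a day after seeding, alone with one drug or with a fixed anchor-drug dose plus five library-drug doses (not always all listed) in √10 steps, and nuclei were counted after 5 days.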

[2] = compound: Cc1ccc(NC(=O)c2ccc(CN3CCN(C)CC3)cc2)cc1Nc1nccc(-c2cccnc2)n1 [Imatinib] + Cc1nc(NC(=O)N2CCC[C@H]2C(N)=O)sc1-c1ccnc(C(C)(C)C(F)(F)F)c1 [Alpelisib] (partner 2 µM)
Procedure, shortened: as §1

[3] = compound: Cc1ccc(NC(=O)c2ccc(CN3CCN(C)CC3)cc2)cc1Nc1nccc(-c2cccnc2)n1 [Imatinib] + O=C(c1cc(Cc2n[nH]c(=O)c3ccccc23)ccc1F)N1CCN(C(=O)C2CC2)CC1 [Olaparib] (partner 8 µM)
Procedure, shortened: as §1

[4] = compound: Cc1ccc(NC(=O)c2ccc(CN3CCN(C)CC3)cc2)cc1Nc1nccc(-c2cccnc2)n1 [Imatinib] + Nc1ncn([C@H]2C[C@H](O)[C@@H](CO)O2)c(=O)n1 [Decitabine] (partner 2 µM)
Procedure, shortened: as §1

Cell Line	relative viability ([1]; first compound 0.02 µM)	relative viability ([1]; first compound 0.06325 µM)	relative viability ([1]; first compound 0.2 µM)	relative viability ([1]; first compound 0.6325 µM)	relative viability ([1]; first compound 2 µM)	relative viability ([2]; first compound 0.02 µM)	relative viability ([2]; first compound 0.06325 µM)	relative viability ([2]; first compound 0.2 µM)	relative viability ([2]; first compound 0.6325 µM)	relative viability ([2]; first compound 2 µM)	relative viability ([3]; first compound 0.02 µM)	relative viability ([3]; first compound 0.06325 µM)	relative viability ([3]; first compound 0.2 µM)	relative viability ([3]; first compound 0.6325 µM)	relative viability ([3]; first compound 2 µM)	relative viability ([4]; first compound 0.02 µM)	relative viability ([4]; first compound 0.06325 µM)	relative viability ([4]; first compound 0.2 µM)	relative viability ([4]; first compound 0.6325 µM)	relative viability ([4]; first compound 2 µM)
NCI-H661	1.09	0.57	0.753	0.958	0.769	0.689	0.406	0.546	0.68	0.521	0.747	0.94	0.853	0.773	0.703	0.597	0.592	0.532	0.585	0.613
NCI-H1993	0.678	0.564	0.573	0.522	0.521	–	0.792	0.533	0.621	0.534	1.15	1.04	1.16	0.968	0.983	0.629	0.718	0.662	0.643	0.528
NCI-H647	0.198	0.183	0.142	0.181	0.148	1.25	1.4	1.6	1.13	1.11	0.803	0.67	0.792	0.588	0.495	0.454	0.432	0.421	0.366	0.37
EPLC-272H	0.393	–	0.367	0.311	0.289	1.04	–	0.987	1.03	0.843	0.669	–	–	0.795	0.732	0.327	–	–	0.408	0.33
NCI-H1915	0.298	–	0.368	0.312	0.305	1.07	–	1.09	1.05	0.966	0.237	–	0.253	0.26	0.234	0.257	–	0.281	0.276	0.243
NCI-H727	0.433	–	0.331	0.234	0.463	0.496	0.585	0.529	0.659	–	0.644	–	0.696	0.712	0.664	–	–	0.904	0.84	0.808
HARA	0.309	–	0.279	0.217	0.27	1	0.501	0.822	0.697	0.804	0.408	0.568	–	0.896	0.68	0.584	0.518	0.503	0.473	0.579
LK-2	0.258	0.266	0.282	0.276	0.15	1.33	–	1.23	1.18	1.19	0.725	0.629	0.711	–	0.92	0.336	0.323	0.237	–	0.183
NCI-H2009	0.282	–	0.304	0.253	0.288	1.18	1.24	1.26	1.21	1.13	0.692	0.882	0.796	0.671	0.661	0.434	0.346	0.346	0.425	0.363
NCI-H2087	0.817	–	0.949	0.89	–	0.975	1.19	1.23	0.96	1.05	0.63	–	0.619	0.595	–	0.291	–	0.251	0.283	–
NCI-H838	0.268	0.307	0.3	0.297	0.358	1.02	1.06	1.12	1.06	1.04	0.88	0.988	–	0.883	0.852	0.464	0.497	0.469	0.488	0.424
NCI-H2170	0.636	0.582	0.477	0.48	0.411	0.954	0.931	0.846	0.789	0.797	0.635	0.585	0.663	0.69	0.578	0.463	0.492	0.486	0.454	0.458
NCI-H1666	0.83	0.838	0.825	0.792	0.697	1.04	1.05	1.09	1.34	0.887	0.734	0.763	0.769	0.833	0.74	0.699	0.716	0.779	0.796	0.727
NCI-H1944	0.198	0.208	0.2	0.2	0.234	0.85	–	0.893	0.714	0.84	0.448	0.337	0.414	0.394	0.459	0.427	0.394	0.474	0.401	0.444
LC-2-ad	0.603	0.545	0.461	0.484	0.588	0.965	0.967	0.913	0.819	0.817	0.756	–	0.751	0.761	0.694	0.816	–	0.948	0.824	0.759
EKVX	0.58	–	0.549	0.502	0.505	0.967	0.883	0.89	0.835	1.01	1.05	–	1.12	0.923	–	0.325	–	0.375	0.352	–
NCI-H322M	0.245	0.259	0.248	0.237	0.253	0.771	0.871	0.857	0.772	0.866	0.821	0.857	0.734	0.678	0.807	0.751	0.692	0.661	0.655	0.756
SK-MES-1	0.372	0.309	0.372	0.318	0.337	0.887	0.891	1.03	0.954	0.988	0.778	0.742	0.92	0.684	0.711	0.379	0.412	0.413	0.417	0.334
